# Data reported in ChEMBL document CHEMBL2169756, “Recent results in protein kinase inhibition for tropical diseases” (Bioorg Med Chem Lett, 2012).
# How the values were obtained:
# Cdc2-related kinase [1] = biological target: T1, Cdc2-related kinase (Leishmania major, UniProt O96526); experiment: Inhibition of Leishmania major CRK3 expressed in Escherichia coli BL21 (DE3) using 5FAM-GGGRSPGRRRRK-OH as substrate after 60 mins by IMAP assay
# T1 sequence (O96526 whole entry): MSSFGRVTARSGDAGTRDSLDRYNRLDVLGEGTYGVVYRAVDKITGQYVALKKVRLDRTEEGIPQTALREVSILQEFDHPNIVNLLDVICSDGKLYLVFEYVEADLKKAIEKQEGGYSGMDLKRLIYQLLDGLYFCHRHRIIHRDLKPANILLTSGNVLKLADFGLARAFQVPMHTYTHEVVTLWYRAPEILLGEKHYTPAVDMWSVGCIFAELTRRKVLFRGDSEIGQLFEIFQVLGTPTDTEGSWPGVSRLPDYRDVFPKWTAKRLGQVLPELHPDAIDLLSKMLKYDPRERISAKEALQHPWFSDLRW
# [2] = biological target: Cyclin-dependent kinase 1 (Homo sapiens, UniProt P06493); experiment: Inhibition of human CDK1
# [3] = biological target: Cyclin-dependent kinase 6 (Homo sapiens, UniProt Q00534); experiment: Inhibition of human CDK6
# [4] = biological target: Cyclin-dependent kinase 7 (Homo sapiens, UniProt P50613); experiment: Inhibition of human CDK7
# Plasmodium falciparum = experiment: Antimalarial activity against Plasmodium falciparum; type: functional, organism-based
# [5] = biological target: Cyclin-dependent kinase 2 (Homo sapiens, UniProt P24941); experiment: Inhibition of human CDK2
# [6] = Inhibition of Plasmodium falciparum MPK
# [7] = biological target: T2, Calcium-dependent protein kinase 4 (Plasmodium falciparum (isolate 3D7), UniProt Q8IBS5); experiment: Inhibition of CDPK4 in Plasmodium falciparum 3D7 microgametes
# T2 sequence (Q8IBS5 whole entry): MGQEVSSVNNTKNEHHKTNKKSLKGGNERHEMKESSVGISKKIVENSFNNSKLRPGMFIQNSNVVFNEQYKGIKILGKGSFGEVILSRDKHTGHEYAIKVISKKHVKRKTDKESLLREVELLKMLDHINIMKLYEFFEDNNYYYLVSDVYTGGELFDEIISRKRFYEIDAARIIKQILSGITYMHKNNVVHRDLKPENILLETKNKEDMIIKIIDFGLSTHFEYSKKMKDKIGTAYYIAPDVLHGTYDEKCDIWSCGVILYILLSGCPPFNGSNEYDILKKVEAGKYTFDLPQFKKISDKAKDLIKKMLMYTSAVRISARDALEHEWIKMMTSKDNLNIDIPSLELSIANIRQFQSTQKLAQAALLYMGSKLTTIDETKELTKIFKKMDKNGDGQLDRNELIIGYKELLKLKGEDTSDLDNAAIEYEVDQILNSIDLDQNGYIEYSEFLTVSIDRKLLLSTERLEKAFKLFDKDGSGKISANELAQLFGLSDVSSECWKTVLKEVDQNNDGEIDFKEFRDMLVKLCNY
# [8] = Selectivity ratio of cytotoxicity for […] to IC50 for Mycobacterium tuberculosis H37Rv; type: cell-based
# [9] = system: Mycobacterium tuberculosis; experiment: Antitubercular activity against Mycobacterium tuberculosis H37Rv by high throughput assay; type: functional
# Cdc2-related kinase [10] = biological target: T1, Cdc2-related kinase; experiment: Inhibition of Leishmania major CRK3 expressed in Escherichia coli BL21 (DE3) after 30 mins by autoradiography
# Leishmania major = experiment: Antileishmanial activity against Leishmania major promastigotes; type: functional, organism-based
# Trypanosoma brucei = experiment: Antitrypanosomal activity against Trypanosoma brucei infected in Swiss Webster mouse assessed as cure rate at 20 mg/kg, ip bid administered 4 days post infection; type: functional; details: route intraperitoneal
# [11] = system: Trypanosoma brucei brucei; experiment: Antitrypanosomal activity against bloodstream form of Trypanosoma brucei brucei 427 after 72 hrs by resazurin microplate assay; type: functional, organism-based; details: Trypanosoma brucei, 427, 72 h
# [12] = system: Trypanosoma brucei brucei; experiment: Antitrypanosomal activity against procyclic Trypanosoma brucei brucei 29-13 after 72 hrs by resazurin microplate assay; type: functional, organism-based; details: 29-13, 72 h
# Leishmania donovani [13] = experiment: Antileishmanial activity against Leishmania donovani MHOM/SD/62/1SCL2D promastigotes after 72 hrs by resazurin reduction assay; type: functional, organism-based
# Leishmania donovani [14] = experiment: Antileishmanial activity against Leishmania donovani MHOM/SD/62/1SCL2D amastigotes after 72 hrs by resazurin reduction assay; type: functional, organism-based
# [15] = biological target: cGMP-dependent protein kinase (Plasmodium falciparum, UniProt W7JX98); experiment: Inhibition of PKG in Plasmodium falciparum 3D7 microgametes
# Toxoplasma gondii = experiment: Antiprotozoal activity against Toxoplasma gondii expressing low level of ROP18 infected in human HFF cells; type: functional, organism-based
# Sequence of Cyclin-dependent kinase 1 (P06493 whole entry): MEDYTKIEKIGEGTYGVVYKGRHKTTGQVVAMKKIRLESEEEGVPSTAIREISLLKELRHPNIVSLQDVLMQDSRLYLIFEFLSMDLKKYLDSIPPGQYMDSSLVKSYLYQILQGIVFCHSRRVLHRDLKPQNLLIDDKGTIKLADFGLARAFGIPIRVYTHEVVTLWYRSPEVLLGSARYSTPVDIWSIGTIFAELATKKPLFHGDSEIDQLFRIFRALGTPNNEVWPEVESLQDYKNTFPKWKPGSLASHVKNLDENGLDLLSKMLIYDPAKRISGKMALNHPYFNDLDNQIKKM
# Sequence of Cyclin-dependent kinase 6 (Q00534 whole entry): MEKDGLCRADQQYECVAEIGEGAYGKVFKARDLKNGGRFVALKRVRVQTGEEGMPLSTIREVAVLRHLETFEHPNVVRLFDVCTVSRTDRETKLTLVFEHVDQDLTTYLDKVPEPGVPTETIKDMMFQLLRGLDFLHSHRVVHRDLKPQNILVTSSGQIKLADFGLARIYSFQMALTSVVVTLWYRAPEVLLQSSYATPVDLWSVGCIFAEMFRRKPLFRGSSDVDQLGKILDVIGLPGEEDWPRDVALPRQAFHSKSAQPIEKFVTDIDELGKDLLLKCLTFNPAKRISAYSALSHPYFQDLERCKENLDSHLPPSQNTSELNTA
# Sequence of cGMP-dependent protein kinase (W7JX98 whole entry): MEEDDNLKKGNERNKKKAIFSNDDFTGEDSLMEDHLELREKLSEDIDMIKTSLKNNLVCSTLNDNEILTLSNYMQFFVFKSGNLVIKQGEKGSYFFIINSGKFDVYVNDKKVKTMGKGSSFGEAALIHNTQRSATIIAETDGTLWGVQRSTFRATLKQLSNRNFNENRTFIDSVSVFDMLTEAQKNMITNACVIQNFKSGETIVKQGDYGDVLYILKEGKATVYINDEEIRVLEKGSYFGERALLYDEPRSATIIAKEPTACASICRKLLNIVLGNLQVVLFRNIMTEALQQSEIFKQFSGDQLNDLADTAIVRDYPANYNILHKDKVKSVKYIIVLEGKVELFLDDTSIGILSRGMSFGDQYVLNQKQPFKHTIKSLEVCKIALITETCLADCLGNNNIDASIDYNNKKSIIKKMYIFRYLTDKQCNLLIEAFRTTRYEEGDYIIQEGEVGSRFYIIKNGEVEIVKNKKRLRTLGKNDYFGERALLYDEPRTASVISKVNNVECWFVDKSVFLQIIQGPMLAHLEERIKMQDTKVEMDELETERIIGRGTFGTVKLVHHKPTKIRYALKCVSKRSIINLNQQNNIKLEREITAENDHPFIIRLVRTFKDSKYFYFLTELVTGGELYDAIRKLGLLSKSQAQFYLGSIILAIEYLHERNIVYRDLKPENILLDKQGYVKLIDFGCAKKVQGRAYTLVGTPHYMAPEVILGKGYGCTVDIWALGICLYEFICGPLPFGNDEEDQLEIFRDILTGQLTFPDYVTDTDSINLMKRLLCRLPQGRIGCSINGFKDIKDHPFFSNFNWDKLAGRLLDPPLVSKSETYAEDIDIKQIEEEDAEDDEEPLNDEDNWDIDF
# Sequence of Cyclin-dependent kinase 7 (P50613 whole entry): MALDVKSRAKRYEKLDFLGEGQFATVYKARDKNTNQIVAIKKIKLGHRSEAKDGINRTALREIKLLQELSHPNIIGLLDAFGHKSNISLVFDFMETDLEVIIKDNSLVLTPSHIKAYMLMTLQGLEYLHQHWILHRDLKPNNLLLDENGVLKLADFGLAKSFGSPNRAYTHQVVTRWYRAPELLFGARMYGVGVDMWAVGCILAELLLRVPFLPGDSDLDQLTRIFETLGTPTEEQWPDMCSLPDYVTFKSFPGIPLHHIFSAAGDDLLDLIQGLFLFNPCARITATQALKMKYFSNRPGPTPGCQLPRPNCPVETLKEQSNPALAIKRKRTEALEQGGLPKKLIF
smiles,measurement,setting,value
Cc1cccc(-c2ccc3nc(NC(=O)C4CCCCC4)nn3c2)c1,IC50,Cdc2-related kinase [1],60 nM
O=C(CBr)N(c1ccccc1)S(=O)(=O)c1cc(Cl)sc1Cl,IC50,[2],> 20000 nM
same,IC50,[3],> 20000 nM
same,IC50,[4],> 20000 nM
same,IC50,Plasmodium falciparum,17000 nM
same,IC50,[5],> 20000 nM
same,IC50,[6],600 nM
CC(=O)c1cccc(-c2cnn3ccc(Nc4ccc(N5CCOCC5)cc4)nc23)c1,IC50,Cdc2-related kinase [1],260 nM
CC(C)(C)n1nc(-c2ccc3ccccc3c2)c2c(N)ncnc21,IC50,[7],177 nM
O=C(Nc1nnc(-c2ccco2)o1)c1ccc(Oc2ccccc2)cc1,selectivity ratio,[8],> 75
same,IC90,[9],< 0.2 µg/mL
COc1cc(-c2ccc3nc(NC(=O)C4CCCCC4)nn3c2)ccc1O,IC50,Cdc2-related kinase [1],240 nM
O=C(OCn1nnc2ccccc2c1=O)c1ccccc1,selectivity ratio,[8],> 28
same,IC90,[9],1.4 µg/mL
Cc1ccc(N(C(=O)CCl)S(=O)(=O)c2cc(Cl)sc2Cl)cc1,IC50,[6],127000 nM
CC(C)(C)c1ccc(C(=O)Nc2nnc(-c3cccnc3)o2)cc1,selectivity ratio,[8],> 48
same,IC90,[9],0.84 µg/mL
Cc1cc(C)cc(-c2ccc3nc(NC(=O)C4CCCCC4)nn3c2)c1,IC50,Cdc2-related kinase [1],20 nM
Oc1ccccc1-c1nc(NCc2cccnc2)c2ccccc2n1,IC50,Cdc2-related kinase [1],11000 nM
CCN(Cc1ccc(/C=C2\C(=O)Nc3ccccc32)o1)S(C)(=O)=O,IC50,Cdc2-related kinase [1],510 nM
COc1ccc(-n2nnc3c(N4CCCC(O)C4)nc(CC4CCCCC4)nc32)cc1 (centres undefined),IC50,Cdc2-related kinase [10],5300 nM
same,IC50,Leishmania major,8600 nM
COc1ccccc1C(=O)c1cnc(NC2CCN(C(=O)Nc3ccccc3)CC2)nc1N,Activity,Trypanosoma brucei,100%
same,IC50,[11],70 nM
same,IC50,[12],70 nM
same,IC50,Leishmania donovani [13],1000 nM
same,IC50,Leishmania donovani [14],1000 nM
Cc1ccc(NC(=O)Nc2ccnc(-c3cccnc3)n2)cc1,IC50,Cdc2-related kinase [1],1500 nM
COc1ccccc1-c1cnn2c(Nc3cccc(Cl)c3)cc(C)nc12,selectivity ratio,[8],19
same,IC90,[9],1.7 µg/mL
CN1CCC(c2cc(-c3ccncc3)c(-c3ccc(F)cc3)[nH]2)CC1,IC50,[15],8 nM
Cn1c(=O)c(/C=C/c2ccc3c(c2)OCO3)nc2ccccc21,IC50,Toxoplasma gondii,2 nM
O=S(=O)(Nc1ccccc1)c1cc(Cl)sc1Cl,IC50,[6],15000 nM
Cc1cc(C)cc(-c2ccc3nc(NC(=O)C4CCCCCC4)n(C)c3c2)c1,IC50,Cdc2-related kinase [1],5 nM
